According to PMC12086609, “Characterization of the Structure and Function of the Photosynthetic RC–LH1 Core Supercomplex From Rhodospirillum rubrum” (Physiologia Plantarum, 2025):

Assays:
[1] = molecular target: T1, Rsp. rubrum RC–LH1 supercomplex (RC–LH1 monomer) (Rhodospirillum rubrum, UniProt P02947+P10717+Q2RQ23+Q2RQ26); assay: cryo-EM structure, […] Å; assay type: binding; settings: native carotenoid of LH1, one per alpha-beta heterodimer (16)
T1 construct: gene pufL; native purification from phototrophic cells (beta-DDM, sucrose gradient); closed ring of 16 alpha-beta pairs around RC L, M, H; modelled alpha 45 and beta 44 residues

[2] = molecular target: T1, Rsp. rubrum RC–LH1 supercomplex (RC–LH1 monomer); assay: cytochrome c2 oxidation at […] nm under […] nm light; assay type: biochemical; settings: QB site of RC (L/M); 0-40 μM UQ2, 15 nM RC–LH1, 30 μM reduced horse-heart cytochrome c, HEPES pH 8.0, 0.01% β-DDM; apparent Km not determined
[3] = molecular target: T2, Rba. sphaeroides WT RC–LH1 monomer (Cereibacter sphaeroides, UniProt P0C0Y8+P0C0Y9); assay: cytochrome c2 oxidation at […] nm under […] nm light; assay type: biochemical; settings: QB site of RC (L/M); 0-40 μM UQ2, 15 nM RC–LH1, 30 μM reduced horse-heart cytochrome c, HEPES pH 8.0, 0.01% β-DDM; apparent Km not determined
T2 construct: gene pufL; native RC–LH1 monomer with open LH1 ring (contains PufX); with Reaction center protein H chain; Light-harvesting protein B-875 alpha chain (LH1 alpha); Light-harvesting protein B-875 beta chain (LH1 beta); Intrinsic membrane protein PufX

T1 sequence (P10717 2-276): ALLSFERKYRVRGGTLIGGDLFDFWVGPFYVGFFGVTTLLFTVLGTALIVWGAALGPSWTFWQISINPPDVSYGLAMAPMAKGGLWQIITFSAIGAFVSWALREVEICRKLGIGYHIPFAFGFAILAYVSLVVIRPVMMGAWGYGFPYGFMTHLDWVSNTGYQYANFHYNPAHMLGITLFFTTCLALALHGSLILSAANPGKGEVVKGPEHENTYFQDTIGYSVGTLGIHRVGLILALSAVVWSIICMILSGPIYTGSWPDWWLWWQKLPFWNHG
T1 sequence (Q2RQ26 1-306): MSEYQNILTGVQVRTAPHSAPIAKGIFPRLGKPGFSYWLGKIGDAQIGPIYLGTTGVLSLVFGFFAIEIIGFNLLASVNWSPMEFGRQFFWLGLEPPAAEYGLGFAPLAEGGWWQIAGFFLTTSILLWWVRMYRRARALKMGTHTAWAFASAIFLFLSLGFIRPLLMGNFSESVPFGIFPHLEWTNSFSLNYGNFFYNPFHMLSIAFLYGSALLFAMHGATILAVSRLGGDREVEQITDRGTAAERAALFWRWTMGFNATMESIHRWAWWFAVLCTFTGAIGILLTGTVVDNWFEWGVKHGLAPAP
T1 sequence (Q2RWS4 1-257 partner): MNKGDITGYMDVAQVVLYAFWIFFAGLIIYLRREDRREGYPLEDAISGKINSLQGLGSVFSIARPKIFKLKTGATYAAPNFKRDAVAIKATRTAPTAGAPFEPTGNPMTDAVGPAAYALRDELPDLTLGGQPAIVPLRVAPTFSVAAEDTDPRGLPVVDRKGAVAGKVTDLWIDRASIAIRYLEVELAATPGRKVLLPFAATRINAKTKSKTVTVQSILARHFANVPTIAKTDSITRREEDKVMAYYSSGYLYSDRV
T1 sequence (P02947 1-52): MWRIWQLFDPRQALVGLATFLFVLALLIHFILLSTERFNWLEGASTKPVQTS
T1 sequence (Q2RQ23 3-56): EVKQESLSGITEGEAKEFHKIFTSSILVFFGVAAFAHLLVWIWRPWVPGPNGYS

SMILES	cryo-EM structure, 3.0 Å [1]	cytochrome c oxidation at 550 nm under 880 nm light [2]	cytochrome c2 oxidation at 550 nm under 880 nm light [3]
COC(C)(C)C/C=C/C(C)=C/C=C/C(C)=C/C=C/C(C)=C/C=C/C=C(C)/C=C/C=C(C)/C=C/C=C(C)/C=C/CC(C)(C)OC [spirilloxanthin]	The LH1 α‐polypeptide is light blue sky, the β‐polypeptide is pink, spirilloxanthin is green		
COC1=C(OC)C(=O)C(C/C=C(\C)CCC=C(C)C)=C(C)C1=O [ubiquinone‐2]		maximum quinone/quinol exchange rate for Rsp. rubrum RC–LH1 monomer	open RC–LH1 monomer of Rba. sphaeroides WT
